This passage reports EC50, IC50 and outcome results from PubChem BioAssay AID179 (DTP/NCI, 2004).

The experiment relates to CEM cells HIV-1 protection, formazan growth assay. Briefly: NCI AIDS Antiviral Assay. Particulars: for IC50: measured here: growth of uninfected CEM cells. Put shortly:
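Human CEM cells, uninfected and HIV-1-infected, exposed to five drug concentrations; growth measured by soluble formazan assay and scored as percent protection from infection, with protecting compounds retested.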

“And” between values parts separate entries of the source, which are not always exact repeats. Identical values can stand only once. The source made the active and inactive calls.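 How the source made its calls: active means compounds giving half or more protection of infected cells from virus-caused growth loss, again on retest; inactive means the rest.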 Where a SMILES comes first, the peptide text is derived from it. The star is where a group is joined. Cbz = O=C(OCc1ccccc1)*; Boc = CC(C)(C)OC(=O)*; OSu = O=C1CCC(=O)N1O*; Bn = c1ccc(C*)cc1; OtBu = CC(C)(C)O*

Turning to `CO/N=C(/C(=O)N(C(=O)/C(=N/OC)c1csc(NC(c2ccccc2)(c2ccccc2)c2ccccc2)n1)n1cnn(CC(=O)OC(C)(C)C)c1=O)c1csc(NC(c2ccccc2)(c2ccccc2)c2ccccc2)n1`, the EC50 is over 200 µM and the IC50 came to 174 µM.
As for `c1csc(-c2nn3c(C45CC6CC(CC(C6)C4)C5)nnc3s2)c1`, the EC50 is over 200 µM and the half-maximal inhibitory concentration (IC50) was over 200 µM.
With `Cc1cc(=O)[nH]c(-n2[nH]c3c(c2=O)CCCC3)n1`, the EC50 was over 200 µM and the IC50 worked out at 24.5 µM.
Regarding `CC(=O)OC1[C@@H]2[C@@H](COC(c3c(F)cccc3Cl)N2OC(C)=O)O[C@H]1n1ccc(=O)[nH]c1=O` (stereo partly drawn), the EC50 is over 200 µM and the IC50 was found to be 115 µM.
Turning to `Nc1nc(N)c(-c2ccccc2)c(CCC(=O)Nc2ccc(Cl)cc2)n1`, the EC50 is over 490 µM and the IC50 amounted to 24 µM.
Turning to `CCOC(=O)c1nc2c3c(ncn2n1)Oc1c(c(-c2ccccc2)nn1-c1ccccc1)C3c1ccc(Cl)cc1` (stereo not drawn), the EC50 is over 200 µM and the half-maximal inhibitory concentration (IC50) is over 200 µM.
For the compound `CCOC(=O)C(NC(=O)c1cccc(Cl)c1)(Nc1cccc(C)c1)C(F)(F)F` (stereo not drawn), the EC50 was over 200 µM and the half-maximal inhibitory concentration (IC50) stood at 17.4 µM.
Consider `Cc1ccc(S(=O)(=O)/C(C#N)=C/n2ccc(=O)[nH]c2=S)cc1`, for which the EC50 was over 200 µM and the IC50 is over 200 µM.
Turning to `C[C@]12CC[C@H]3[C@@H](CCC4=CC(=O)[C@H](Br)C[C@@]43C)[C@@H]1CC[C@@H]2C(=O)CBr`, the EC50 is over 2 µM and the half-maximal inhibitory concentration (IC50) turned out to be 0.316 µM.
For `CC12OC3(C)OC(=O)C(c4ccccc4)(O1)C3(C)O2` (stereo not drawn), the outcome was inactive.
As for `CC(=O)OCC1OC(n2c(=O)n(-c3ccccc3)c(=O)c3cc(Br)cc(Br)c32)C(OC(C)=O)C(OC(C)=O)C1OC(C)=O` (stereo not drawn), the EC50 was over 13.8 µM and the IC50 is over 13.8 µM.
On to `COc1cccc(NC(=O)CC(=O)N2N=C(N(CCC#N)c3ccc(Cl)cc3)CC2c2ccccc2)c1` (stereo not drawn), for which the EC50 was over 69.2 µM and the IC50 is over 69.2 µM.
Take `CC(C)CC(NC(=O)C(Cc1ccccc1)NC(=O)C1CCCN1C(=O)OCc1ccccc1)C(=O)OC(C)(C)C` (stereo not drawn) (Cbz-Pro-Phe-Leu-OtBu; configuration not given here): the EC50 is over 6.61 µM and the concentration for half-maximal inhibition (IC50) was over 6.61 µM.
With `CC(C)(C)c1nc2c(o1)C(=Nc1ccccc1)c1ccccc1C2=O`, the result was inactive.
Take `Cc1cccc(C)c1Nc1nc(C)c(C(=O)CC(=O)C(=O)Nc2c(C(C)C)cccc2C(C)C)s1`: the EC50 is over 200 µM and the IC50 is over 200 µM.
Turning to `CCCOc1nc(N)c2cnn(C3CCCCO3)c2n1` (stereo not drawn), the EC50 is over 912 µM and the IC50 is 550 µM.
For `C=CCn1c(N)c(N=O)c(=O)n(CC)c1=O`, in that order: over 200 µM and over 200 µM.
For `NC(N)=NCCCC(N)C(=O)O` (stereo not drawn), the EC50 is over 200 µM and the concentration for half-maximal inhibition (IC50) is over 200 µM.
Regarding `O=C(c1cccs1)N1CCc2ccccc2C1`, the EC50 is over 162 µM and the IC50 stood at 107 µM.
As for `CC(=O)Oc1cc2c(cc1OC(C)=O)C1(C)CCC2(C)c2cc(OC(C)=O)c(OC(C)=O)cc21`, the result was inactive.
For the compound `COc1cc(OCc2ccc3nc(-c4ccccc4)c(Cl)nc3c2)cc(OC)c1OC`, the EC50 was over 200 µM and the IC50 was over 200 µM.
In the case of `Cc1cccc(C)c1NC(=O)/C(Cl)=C(/Cl)C(=O)O`, the outcome was inactive.
As for `C[N+](C)(C)CC1Cc2ccccc2C1=O` (stereo not drawn), the result was inactive.
Consider `c1ccc(-c2csc3[nH]c4ccccc4[n+]23)cc1`, for which the outcome was inactive.
For `CC1=C/C(=N\OCC(=O)O)CC(c2ccc(C(C)C)cc2)C1` (stereo not drawn), the EC50 is over 200 µM and the concentration for half-maximal inhibition (IC50) amounted to 97.7 µM.
For `COc1ccccc1-c1cc(=O)c2ccc(OC)c(OC)c2o1`, in that order: over 200 µM and 33.1 µM.
As to H-HSFNCGGEFFY-OH, the result was inactive.
On to `O=c1[nH]c2c(cnn2-c2ccccc2)c(=O)n1OS(=O)(=O)c1ccccc1`, for which the EC50 was over 200 µM and the IC50 was over 200 µM.
Take `CSc1nc(NC2OC(COC(C)=O)C(OC(C)=O)C(OC(C)=O)C2OC(C)=O)c(-c2csc(N)n2)c(=O)n1C` (stereo not drawn): the outcome was inactive.
On to `N#CC1C(=O)Nc2sc(C(=O)c3ccc(Br)cc3)c(N)c2C12CCCCC2` (stereo not drawn), for which the EC50 was over 200 µM and the IC50 stood at 11.5 µM.
With `O=C(Nc1sccc1S(=O)(=O)c1ccccc1)c1ccccc1`, the EC50 is over 20 µM and the half-inhibitory concentration (IC50) worked out at 11.7 µM.
Turning to `CC(=O)C(=[N+]=[N-])C(=O)N1CCOC1=O`, the EC50 was over 200 µM and the IC50 is over 200 µM.
For `CC(C)(C)OC(=O)c1cc(NC(=S)c2ccccc2)ccc1Cl`, the concentration giving a half-maximal response (EC50) is 0.363 µM and the half-inhibitory concentration (IC50) was determined as 19.1 µM.
For `CC(C)(C)C1=CC(C)(n2[nH]c(=O)n(-c3ccccc3)c2=O)C=C(C(C)(C)C)C1=O`, in that order: over 200 µM and 97.7 µM.
Take `COCCCN1C(=O)C2c3[nH]c4ccccc4c3C3CCC(C(C)(C)C)CC3C2C1=O` (stereo not drawn): the EC50 was over 200 µM and the IC50 was determined as 31.6 µM.
Taken in the same sequence, the figures for `O=C1OC(=O)C2=C1C1C=CC2O1` were over 1070 µM and 295 µM.
For `COC(=O)c1ncn(C)c1O`, the EC50 is over 200 µM and the half-maximal inhibitory concentration (IC50) is over 200 µM.
For the compound `CN(C)C1C(=O)C(C(=O)NCNC2C(=O)N3C2SC(C)(C)C3C(=O)O)=C(O)C2(O)C(=O)C3=C(O)c4c(O)cccc4C(C)(O)C3CC12` (stereo not drawn), the EC50 is over 269 µM and the 50% inhibitory concentration (IC50) is 251 µM.
For `Cc1nc(N)sc1C(=O)/C=C/c1ccc([N+](=O)[O-])cc1`, the EC50 is over 871 µM and the half-inhibitory concentration (IC50) stood at 57.5 µM.
For the compound `CCOc1ccccc1NC(=O)C(=O)C1C(=O)Nc2ccccc2S1=O` (stereo not drawn), the result was inactive.
`C1=Cc2nc1c(-c1ccccc1)c1ccc([nH]1)c(-c1ccccc1)c1nc(c(-c3ccccc3)c3ccc([nH]3)c2-c2ccccc2)C=C1`: the EC50 was over 2.34 µM and the IC50 is over 2.34 µM.
Turning to `C=C1C[C@](OC)([C@H](O)C(=O)N[C@@H](OC)[C@@H]2C[C@@H](O)C(C)(C)[C@@H](C[C@@H](COC)OC)O2)O[C@H](C)[C@@H]1C`, the result was inactive.
Consider `Cc1cc(=O)c2c(O)c3c(O)cc(O)c4c5c(O)cc(O)c6c(O)c7c(=O)cc(C)c8c1c2c(c34)c(c65)c78`, for which the EC50 was over 100 µM.
`NC(=O)C(=CN1C(=O)/C(=C/c2ccc([N+](=O)[O-])cc2)SC1=S)C(N)=O`: the EC50 is over 200 µM and the concentration for half-maximal inhibition (IC50) worked out at 30.2 µM.
Taken in the same sequence, the figures for `CC1(C)C=C(N2CCN(C3=CC(C)(C)NC(C)(C)C3)CC2)CC(C)(C)N1` were over 182 µM and over 182 µM.
Take `CC1(C)CC2CCC(O)C2C(CCO)N1` (stereo not drawn): the EC50 was over 200 µM and the IC50 is over 200 µM.
Regarding `CC1c2cc(c3c(c2O)CN([C@@H](C)C2CCCCC2)CO3)C(C)c2cc(c3c(c2O)CN([C@@H](C)C2CCCCC2)CO3)C(C)c2cc(c3c(c2O)CN([C@@H](C)C2CCCCC2)CO3)C(C)c2cc1c1c(c2O)CN([C@@H](C)C2CCCCC2)CO1` (stereo partly drawn), the EC50 is over 100 µM and the IC50 is 1.74 µM.
On to `COC(=O)c1cc(Cl)ccc1NC(=O)C1CCCCC1`, for which the result was inactive.
For `CCCCN(CCCC)C(=O)C(=O)C(C(=O)C(=O)OC)c1nc2ccccc2o1` (stereo not drawn), the EC50 is over 33.9 µM and the half-maximal inhibitory concentration (IC50) is over 33.9 µM.
On to `CCOC(=O)c1cc(-c2ccc(OC)c(OC)c2)c[nH]1`, for which the EC50 is over 200 µM and the 50% inhibitory concentration (IC50) came to 50.1 µM.
With `OC(CNc1ccccn1)c1ccccc1` (stereo not drawn), the EC50 was over 200 µM and the IC50 was over 200 µM.
As for `CC(CCCOC(c1ccccc1)(c1ccccc1)c1ccccc1)OC(=O)Nc1cc([N+](=O)[O-])cc([N+](=O)[O-])c1` (stereo not drawn), the EC50 is over 12.9 µM and the IC50 is over 12.9 µM.
Consider `COc1cc(OC)c(OC)cc1/C=C/c1cc[n+](C)c2ccccc12`, for which the EC50 is over 200 µM and the IC50 was 7.59 µM.
Taken in the same sequence, the figures for `CC(C)(C)OC(=O)NC(Cc1ccc(OCc2ccccc2)cc1)C(=O)NC(CCCCNC(=O)OCc1ccccc1)C(=O)ON1C(=O)CCC1=O` (stereo not drawn) (Boc-Tyr(Bn)-Lys(Cbz)-OSu; configuration not given here) were over 200 µM and 36.3 µM.
As for `CN1C2CC(C#N)C1C=CC2=O` (stereo not drawn), the EC50 is over 200 µM; the concentration for half-maximal inhibition (IC50) was 32.4 µM and 107 µM.
`Cc1cc(C)c(C(=O)c2c(C)ccc(C)c2C(=O)O)c(C)c1` showed a concentration giving a half-maximal response (EC50) of over 200 µM and an IC50 of over 200 µM.
For the compound `COc1ccc(C2C(C(C)=O)=C(C)NC(C)=C2C(C)=O)cc1`, the EC50 is over 200 µM and the IC50 is over 200 µM.
`COc1ccc(C(C#N)NNC(=O)Cc2ccccc2)cc1OC` (stereo not drawn): the EC50 is over 398 µM and the IC50 was found to be 331 µM.
Taken in the same sequence, the figures for `COC(=O)CN(CC1O[C@@H]2OC(C)(C)O[C@@H]2C1NC(C)=O)C(=O)OCc1ccccc1` (stereo partly drawn) were over 200 µM and over 200 µM.
On to `COc1cc2c(cc1OC)C(N(C)C)C(c1ccccc1)=C2Cl` (stereo not drawn), for which the EC50 was over 55 µM and the IC50 stood at 33.1 µM.
Turning to `Cc1c(C)c2ccc(OCC(O)COC(C)C)c(C)c2oc1=O` (stereo not drawn), the EC50 was over 200 µM and the concentration for half-maximal inhibition (IC50) was 32.4 µM.
For the compound `Cc1cc(NC(=O)NC(=O)c2ccccc2[N+](=O)[O-])ccc1Oc1ncc(Cl)cn1`, the result was inactive.
Regarding `COC1(C)CC2N(C(=O)c3ccccc3)N=C(c3ccccc3)CC2(C)O1` (stereo not drawn), the EC50 is over 100 µM and the half-maximal inhibitory concentration (IC50) was over 100 µM.
Regarding `Cc1cccc(NC2=NCCO2)c1Cl`, the EC50 was over 200 µM and the half-inhibitory concentration (IC50) was 105 µM.
Turning to `CN1CCN(C(=S)N(C)C(=O)c2cccs2)CC1`, the EC50 was over 891 µM and the IC50 is over 891 µM.
Take `C(=N/N=C(N/N=C/C1CNCCN1)N/N=C/C1CNCCN1)/C1CNCCN1` (stereo not drawn): the EC50 is over 631 µM and the 50% inhibitory concentration (IC50) was over 631 µM.
Take `COc1cccc(/C=C2\CCCc3ccccc3C2=O)c1`: the EC50 was over 200 µM and the half-inhibitory concentration (IC50) worked out at 26.3 µM.
On to `Cc1cc(C)n(C2OC(CO)C(O)C(O)C2O)c(=S)c1C#N` (stereo not drawn), for which the EC50 was over 200 µM and the half-maximal inhibitory concentration (IC50) is over 200 µM.
